Laboratory results: paper PMC5218480 (PLoS ONE, 2017)

Tested on: MV-4-11 cells
Experiment: Gene expression microarray analysis (Affymetrix PrimeView) and GSEA
Format: cell-based, human
Design: RFU PODN (11730768_x_at) / Fold change /veh PODN (11730768_x_at) / RFU LINC00158 (11744669_a_at) / Fold change /veh LINC00158 (11744669_a_at) / RFU DUSP10 (11751237_a_at) / Fold change /veh DUSP10 (11751237_a_at) / RFU ID3 (11757404_x_at) / Fold change /veh ID3 (11757404_x_at) / RFU PLEKHG5 (11737974_s_at) / Fold change /veh PLEKHG5 (11737974_s_at) / RFU LRRC4B (11730491_at) / Fold change /veh LRRC4B (11730491_at) / RFU GIMAP4 (11747438_a_at) / Fold change /veh GIMAP4 (11747438_a_at) / RFU KRT8 (11758183_x_at) / Fold change /veh KRT8 (11758183_x_at) / RFU CNN1 (11734310_a_at) / Fold change /veh CNN1 (11734310_a_at) / RFU VPS37D (11726825_at) / Fold change /veh VPS37D (11726825_at) / RFU C10orf10 (11716522_x_at) / Fold change /veh C10orf10 (11716522_x_at) / RFU KIR2DL2 /// KIR2DL4 /// KIR2DL5A /// KIR2DL5B /// KIR2DS1 /// KIR2DS2 /// KIR2DS3 /// KIR2DS4 /// KIR3DL3 /// KIR3DL3 /// KIR3DS1 (11738374_at) / Fold change /veh KIR2DL2 /// KIR2DL4 /// KIR2DL5A /// KIR2DL5B /// KIR2DS1 /// KIR2DS2 /// KIR2DS3 /// KIR2DS4 /// KIR3DL3 /// KIR3DL3 /// KIR3DS1 (11738374_at) / RFU C1QL1 (11718748_at) / Fold change /veh C1QL1 (11718748_at) / RFU TMPRSS4 (11747572_a_at) / Fold change /veh TMPRSS4 (11747572_a_at) / RFU HAMP (11756126_x_at) / Fold change /veh HAMP (11756126_x_at) / RFU RNFT2 (11725882_a_at) / Fold change /veh RNFT2 (11725882_a_at) / RFU NR4A2 (11747474_a_at) / Fold change /veh NR4A2 (11747474_a_at) / RFU ABCC12 (11746883_a_at) / Fold change /veh ABCC12 (11746883_a_at) / RFU TMEM136 (11760407_x_at) / Fold change /veh TMEM136 (11760407_x_at) / RFU CLDN22 /// WWC2 (11732394_at) / Fold change /veh CLDN22 /// WWC2 (11732394_at) / RFU HLA-DPB1 (11760878_x_at) / Fold change /veh HLA-DPB1 (11760878_x_at) / RFU SPINT1 (11716480_a_at) / Fold change /veh SPINT1 (11716480_a_at) / RFU GAP43 (11754022_s_at) / Fold change /veh GAP43 (11754022_s_at) / RFU A4GNT (11735810_at) / Fold change /veh A4GNT (11735810_at) / RFU PRB3 (11715151_x_at) / Fold change /veh PRB3 (11715151_x_at) / RFU TUBB4B (11761932_at) / Fold change /veh TUBB4B (11761932_at) / RFU CAPN14 (11732068_a_at) / Fold change /veh CAPN14 (11732068_a_at) / RFU TMCC2 (11721928_a_at) / Fold change /veh TMCC2 (11721928_a_at) / RFU IRGQ (11745062_a_at) / Fold change /veh IRGQ (11745062_a_at) / RFU FAM174B (11720279_a_at) / Fold change /veh FAM174B (11720279_a_at) / RFU TMPRSS4 (11748680_a_at) / Fold change /veh TMPRSS4 (11748680_a_at) / RFU FAM212B (11763350_a_at) / Fold change /veh FAM212B (11763350_a_at) / RFU PLEKHG5 (11743358_a_at) / Fold change /veh PLEKHG5 (11743358_a_at) / RFU ZSCAN30 (11745921_a_at) / Fold change /veh ZSCAN30 (11745921_a_at) / RFU CMKLR1 (11741424_a_at) / Fold change /veh CMKLR1 (11741424_a_at) / RFU LOC101060620 /// MAPK8IP1 (11723275_at) / Fold change /veh LOC101060620 /// MAPK8IP1 (11723275_at) / RFU SPTSSB (11747773_x_at) / Fold change /veh SPTSSB (11747773_x_at) / RFU PRSS12 (11739890_at) / Fold change /veh PRSS12 (11739890_at) / RFU BIN1 (11741810_x_at) / Fold change /veh BIN1 (11741810_x_at) / RFU WNT11 (11732464_a_at) / Fold change /veh WNT11 (11732464_a_at) / RFU C10orf10 (11716521_a_at) / Fold change /veh C10orf10 (11716521_a_at) / RFU C5orf56 (11738089_at) / Fold change /veh C5orf56 (11738089_at) / RFU CYB561 (11721691_x_at) / Fold change /veh CYB561 (11721691_x_at) / RFU ANKRD19P (11752326_a_at) / Fold change /veh ANKRD19P (11752326_a_at) / RFU OR2T12 /// OR2T33 /// OR2T8 (11738714_s_at) / Fold change /veh OR2T12 /// OR2T33 /// OR2T8 (11738714_s_at) / RFU VCAN (11748164_a_at) / Fold change /veh VCAN (11748164_a_at) / RFU JSRP1 (11732532_at) / Fold change /veh JSRP1 (11732532_at) / RFU KRTAP10-11 (11738290_x_at) / Fold change /veh KRTAP10-11 (11738290_x_at) / RFU MYO3A (11730013_a_at) / Fold change /veh MYO3A (11730013_a_at) / RFU EBF3 (11725865_a_at) / Fold change /veh EBF3 (11725865_a_at) / RFU CAMK2N1 (11719241_x_at) / Fold change /veh CAMK2N1 (11719241_x_at) / RFU C5orf56 (11738088_a_at) / Fold change /veh C5orf56 (11738088_a_at) / RFU OLFML3 (11715873_a_at) / Fold change /veh OLFML3 (11715873_a_at) / RFU LOC100653217 /// NTM (11731650_a_at) / Fold change /veh LOC100653217 /// NTM (11731650_a_at) / RFU MAPK11 (11762145_a_at) / Fold change /veh MAPK11 (11762145_a_at) / RFU FIZ1 (11724087_x_at) / Fold change /veh FIZ1 (11724087_x_at) / RFU OASL (11726364_x_at) / Fold change /veh OASL (11726364_x_at) / RFU SOX15 (11748057_x_at) / Fold change /veh SOX15 (11748057_x_at) / RFU CD79A (11719716_a_at) / Fold change /veh CD79A (11719716_a_at) / RFU HIST1H1D (11736915_at) / Fold change /veh HIST1H1D (11736915_at) / RFU CASKIN2 (11723855_a_at) / Fold change /veh CASKIN2 (11723855_a_at) / RFU LOC730098 (11760151_x_at) / Fold change /veh LOC730098 (11760151_x_at) / RFU OR4N2 (11742367_at) / Fold change /veh OR4N2 (11742367_at) / RFU PRRT2 (11749266_a_at) / Fold change /veh PRRT2 (11749266_a_at) / RFU SNX32 (11753110_a_at) / Fold change /veh SNX32 (11753110_a_at) / RFU CDHR5 (11726645_a_at) / Fold change /veh CDHR5 (11726645_a_at) / RFU RCAN1 (11760418_a_at) / Fold change /veh RCAN1 (11760418_a_at) / RFU FAM167A (11723789_a_at) / Fold change /veh FAM167A (11723789_a_at) / RFU FAM26E (11764081_at) / Fold change /veh FAM26E (11764081_at) / RFU ISYNA1 (11749810_s_at) / Fold change /veh ISYNA1 (11749810_s_at) / RFU ACY1 (11761880_at) / Fold change /veh ACY1 (11761880_at) / RFU 11764098_at / Fold change /veh 11764098_at / RFU SAMD14 (11745864_x_at) / Fold change /veh SAMD14 (11745864_x_at) / RFU NPB (11741838_a_at) / Fold change /veh NPB (11741838_a_at) / RFU TMPRSS6 (11731388_a_at) / Fold change /veh TMPRSS6 (11731388_a_at) / RFU KRTAP10-2 (11738614_at) / Fold change /veh KRTAP10-2 (11738614_at) / RFU ARHGAP8 /// PRR5-ARHGAP8 (11727945_x_at) / Fold change /veh ARHGAP8 /// PRR5-ARHGAP8 (11727945_x_at) / RFU KRTAP5-7 /// NADSYN1 (11734609_at) / Fold change /veh KRTAP5-7 /// NADSYN1 (11734609_at) / RFU RASL12 (11751679_a_at) / Fold change /veh RASL12 (11751679_a_at) / RFU CDKN2B (11736163_a_at) / Fold change /veh CDKN2B (11736163_a_at) / RFU PRF1 (11729649_at) / Fold change /veh PRF1 (11729649_at) / RFU, ZNF638 /// ZNF638-IT1 / Fold change vs veh, ZNF638 /// ZNF638-IT1 / RFU, PANK3 / Fold change vs veh, PANK3 / RFU, SH3YL1 / Fold change vs veh, SH3YL1 / RFU, ZEB2 / Fold change vs veh, ZEB2 / RFU, NRIP1 / Fold change vs veh, NRIP1 / RFU, PTTG1IP / Fold change vs veh, PTTG1IP / RFU, CAPN2 / Fold change vs veh, CAPN2 / RFU, MED14 / Fold change vs veh, MED14 / RFU, SNORA58 / Fold change vs veh, SNORA58 / RFU, C1orf63 / Fold change vs veh, C1orf63 / RFU, LRRFIP1 / Fold change vs veh, LRRFIP1 / RFU, NDUFAF7 / Fold change vs veh, NDUFAF7 / RFU, SLC12A2 / Fold change vs veh, SLC12A2 / RFU, IBTK / Fold change vs veh, IBTK / RFU, ESF1 / Fold change vs veh, ESF1 / Fold change vs veh, TMEM50B / RFU, TAOK1 / Fold change vs veh, TAOK1 / RFU, ACBD3 / Fold change vs veh, ACBD3 / RFU, TMA16 / Fold change vs veh, TMA16 / RFU, RWDD3 / Fold change vs veh, RWDD3 / RFU, BCAT1 / Fold change vs veh, BCAT1 / RFU, EDEM3 / Fold change vs veh, EDEM3 / RFU, TMEM33 / Fold change vs veh, TMEM33 / RFU, WDR75 / Fold change vs veh, WDR75 / RFU, AHCTF1 / Fold change vs veh, AHCTF1 / RFU, TFRC / Fold change vs veh, TFRC / RFU, ZDHHC17 / Fold change vs veh, ZDHHC17 / RFU, NOM1 / Fold change vs veh, NOM1 / RFU, ARL8B / Fold change vs veh, ARL8B / RFU, ZBTB11 / Fold change vs veh, ZBTB11 / RFU, TAMM41 / Fold change vs veh, TAMM41 / RFU, KIAA1704 /// LOC100996395 / Fold change vs veh, KIAA1704 /// LOC100996395 / RFU, ING1 / Fold change vs veh, ING1 / RFU, TRMT61B / Fold change vs veh, TRMT61B / RFU, FUBP3 / Fold change vs veh, FUBP3 / RFU, TP53 / Fold change vs veh, TP53 / RFU, TNKS2 / Fold change vs veh, TNKS2 / RFU, ZFP14 / Fold change vs veh, ZFP14 / RFU, ACTR2 / Fold change vs veh, ACTR2 / RFU, PPP3R1 / Fold change vs veh, PPP3R1 / RFU, PIK3R1 / Fold change vs veh, PIK3R1 / RFU, HNRNPA1 / Fold change vs veh, HNRNPA1 / RFU, RNF170 / Fold change vs veh, RNF170 / RFU, ZNF28 / Fold change vs veh, ZNF28 / RFU, RNGTT / Fold change vs veh, RNGTT / RFU, OGT / Fold change vs veh, OGT / RFU, BRD1 / Fold change vs veh, BRD1 / RFU, MARS / Fold change vs veh, MARS / RFU, ZNF655 / Fold change vs veh, ZNF655 / RFU, FAHD1 / Fold change vs veh, FAHD1 / RFU, BDP1 / Fold change vs veh, BDP1 / RFU, LRRCC1 / Fold change vs veh, LRRCC1 / RFU, ARID1A / Fold change vs veh, ARID1A / RFU, ZNF146 / Fold change vs veh, ZNF146 / RFU, ZNF330 / Fold change vs veh, ZNF330 / RFU, GPN3 / Fold change vs veh, GPN3 / RFU, C9orf123 / Fold change vs veh, C9orf123 / RFU, N4BP2L2 / Fold change vs veh, N4BP2L2 / RFU, ARFIP1 / Fold change vs veh, ARFIP1 / RFU, FAM179B / Fold change vs veh, FAM179B / RFU, BCL10 / Fold change vs veh, BCL10 / RFU, UHRF1BP1L / Fold change vs veh, UHRF1BP1L / RFU, BET1 / Fold change vs veh, BET1 / RFU, CNOT2 / Fold change vs veh, CNOT2 / RFU, ZNF268 / Fold change vs veh, ZNF268 / Fold change vs veh, ZNF507 / RFU, DGCR2 / Fold change vs veh, DGCR2 / RFU, WDSUB1 / Fold change vs veh, WDSUB1 / Fold change vs veh, HSP90B1 /// MIR3652 / RFU, ADSS / Fold change vs veh, ADSS / RFU, GK / Fold change vs veh, GK / RFU, ZNF148 / Fold change vs veh, ZNF148 / RFU, TAF9 / Fold change vs veh, TAF9 / RFU, SLC1A5 / Fold change vs veh, SLC1A5 / RFU, SLMO2 / Fold change vs veh, SLMO2 / RFU, ABCC4 / Fold change vs veh, ABCC4 / RFU, LOC101060439 /// RAP1B / Fold change vs veh, LOC101060439 /// RAP1B / RFU, RFX7 / Fold change vs veh, RFX7 / RFU, GTPBP10 / Fold change vs veh, GTPBP10 / RFU, CNEP1R1 / Fold change vs veh, CNEP1R1 / RFU, BIVM-ERCC5 /// ERCC5 / Fold change vs veh, BIVM-ERCC5 /// ERCC5 / RFU, ILF3 / Fold change vs veh, ILF3 / RFU 11762660_at / Fold change /veh 11762660_at / RFU VCAN (11757783_s_at) / Fold change /veh VCAN (11757783_s_at) / RFU DDX43 (11728927_at) / Fold change /veh DDX43 (11728927_at) / RFU KRT8 (11758188_x_at) / Fold change /veh KRT8 (11758188_x_at) / RFU NKD1 (11759106_at) / Fold change /veh NKD1 (11759106_at) / RFU SRD5A1 (11742802_a_at) / Fold change /veh SRD5A1 (11742802_a_at) / RFU TPSAB1 /// TPSB2 (11721975_s_at) / Fold change /veh TPSAB1 /// TPSB2 (11721975_s_at) / RFU GSTM3 (11746129_a_at) / Fold change /veh GSTM3 (11746129_a_at) / RFU IL23R (11737362_x_at) / Fold change /veh IL23R (11737362_x_at) / RFU TMEM51 (11727254_a_at) / Fold change /veh TMEM51 (11727254_a_at) / RFU PIWIL2 (11732686_x_at) / Fold change /veh PIWIL2 (11732686_x_at) / RFU ORM1 (11744905_x_at) / Fold change /veh ORM1 (11744905_x_at) / RFU CCDC152 (11743942_at) / Fold change /veh CCDC152 (11743942_at) / RFU ECM1 (11717891_a_at) / Fold change /veh ECM1 (11717891_a_at) / RFU IL23R (11748794_a_at) / Fold change /veh IL23R (11748794_a_at) / RFU TNFAIP8L3 (11732012_x_at) / Fold change /veh TNFAIP8L3 (11732012_x_at) / RFU MBOAT4 (11741988_at) / Fold change /veh MBOAT4 (11741988_at) / RFU 11764193_at / Fold change /veh 11764193_at / RFU TMEM53 (11763286_at) / Fold change /veh TMEM53 (11763286_at) / RFU MAGEB2 (11727129_at) / Fold change /veh MAGEB2 (11727129_at) / RFU TMEM200A (11744735_a_at) / Fold change /veh TMEM200A (11744735_a_at) / RFU CCDC152 (11751479_a_at) / Fold change /veh CCDC152 (11751479_a_at) / RFU FAM211A (11726209_a_at) / Fold change /veh FAM211A (11726209_a_at) / RFU RGS16 (11746705_a_at) / Fold change /veh RGS16 (11746705_a_at) / RFU VCAN (11755009_s_at) / Fold change /veh VCAN (11755009_s_at) / RFU RHOB (11743442_s_at) / Fold change /veh RHOB (11743442_s_at) / RFU RGS16 (11720943_a_at) / Fold change /veh RGS16 (11720943_a_at) / RFU RGS16 (11720944_at) / Fold change /veh RGS16 (11720944_at) / RFU, VPS4B / Fold change vs veh, VPS4B / RFU, CREB1 / Fold change vs veh, CREB1 / RFU, DNAJC13 / Fold change vs veh, DNAJC13 / RFU, GNAQ / Fold change vs veh, GNAQ / RFU, CDK5R1 / Fold change vs veh, CDK5R1 / RFU, ZRANB3 / Fold change vs veh, ZRANB3 / RFU, CUL4A / Fold change vs veh, CUL4A / RFU, CCNY / Fold change vs veh, CCNY / RFU, UFL1 / Fold change vs veh, UFL1 / RFU, COG3 / Fold change vs veh, COG3 / RFU, DIAPH2 / Fold change vs veh, DIAPH2 / RFU, SKA2 / Fold change vs veh, SKA2 / RFU, AFF3 / Fold change vs veh, AFF3 / RFU, LMF1 / Fold change vs veh, LMF1 / RFU, IPO11 / Fold change vs veh, IPO11 / RFU, DFFB / Fold change vs veh, DFFB / RFU, FOXP1 / Fold change vs veh, FOXP1 / RFU, CARD8 / Fold change vs veh, CARD8 / RFU, STRN3 / Fold change vs veh, STRN3 / RFU, ADK / Fold change vs veh, ADK / RFU, RASSF2 / Fold change vs veh, RASSF2 / RFU, WIPF1 / Fold change vs veh, WIPF1 / RFU, LARP1B / Fold change vs veh, LARP1B / RFU, RASA1 / Fold change vs veh, RASA1 / RFU, RB1 / Fold change vs veh, RB1 / RFU, PPFIA1 / Fold change vs veh, PPFIA1 / RFU, MAT2A / Fold change vs veh, MAT2A / RFU, CCT5 / Fold change vs veh, CCT5 / RFU, WDR92 / Fold change vs veh, WDR92 / RFU, CUX1 / Fold change vs veh, CUX1 / RFU, TTC7A / Fold change vs veh, TTC7A / RFU, TMEM135 / Fold change vs veh, TMEM135 / RFU, DEPTOR / Fold change vs veh, DEPTOR / RFU, CPM / Fold change vs veh, CPM / RFU, DNAJB6 / Fold change vs veh, DNAJB6 / RFU, CACNA2D3 / Fold change vs veh, CACNA2D3 / RFU, DTX4 / Fold change vs veh, DTX4 / RFU, TFCP2 / Fold change vs veh, TFCP2 / RFU, GMCL1 /// GMCL1P1 / Fold change vs veh, GMCL1 /// GMCL1P1 / RFU, AEBP2 / Fold change vs veh, AEBP2 / RFU, SNHG1 /// SNORD22 /// SNORD25 /// SNORD26 /// SNORD27 /// SNORD28 /// SNORD29 /// SNORD31 / Fold change vs veh, SNHG1 /// SNORD22 /// SNORD25 /// SNORD26 /// SNORD27 /// SNORD28 /// SNORD29 /// SNORD31 / Fold change (Aza/veh), C12orf56 (ProbeSet 11735607_a_at) / Fold change (ACY-1035/veh), C12orf56 (ProbeSet 11735607_a_at) / Fold change (Aza/veh), FGFR1OP (ProbeSet 11751329_s_at) / Fold change (ACY-1035/veh), FGFR1OP (ProbeSet 11751329_s_at) / Fold change (Aza/veh), VPS36 (ProbeSet 11739960_a_at) / Fold change (ACY-1035/veh), VPS36 (ProbeSet 11739960_a_at) / RFU SYPL1 (11715823_x_at) / Fold change /veh SYPL1 (11715823_x_at) / RFU IGFBP7 (11715501_s_at) / Fold change /veh IGFBP7 (11715501_s_at) / RFU REEP3 (11722064_at) / Fold change /veh REEP3 (11722064_at) / RFU IGLL1 (11728026_x_at) / Fold change /veh IGLL1 (11728026_x_at): dose or concentration left out as unconfirmed
Details: ProbeSet 11715478_a_at; LIST B

## Nc1ccc(-c2cccs2)cc1NC(=O)c1ccc2c(c1)cc(C1CC1)n2CCN1CCOCC1 [ACY-1035]
  Fold change vs veh, TFRC: 0.87
